What was measured:
Assay type in all cases: in vivo
[1] = system: barnyardgrass (Echinochloa crus-galli); assay: Test G Post-Emergence Protocol; conditions: Echinochloa crus-galli, post-emergence, 312 h; for pest or weed control at 15.625 g/ha: 15.625 g ai/ha, evaluated after 13 days (100=total damage to plant; 0=no damage to plant), read-out: Barnyardgrass damage rating; for pest or weed control at 62.5 g/ha: 62.5 g ai/ha, read-out: Barnyardgrass damage rating (100=total damage to plant; 0=no damage to plant); for pest or weed control at 62.5 g/ha / pest or weed control at 250 g/ha: evaluated after 13 days; for pest or weed control at 250 g/ha: 250 g ai/ha, read-out: damage to plant, Barnyardgrass (100=total damage to plant; 0=no damage to plant)
Method in brief: (§1)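 Sow in soil; grow 8 d (24/16 °C, 14 h light, 65% humidity); spray 15.625/62.5/250 g/ha in acetone:water 50:50 + 0.5% Tween 20; grow on, water twice daily; score damage 0–100 at 13 d.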

[2] = system: corn (Zea mays); assay: Test G Post-Emergence Protocol; conditions: Zea mays, post-emergence, 312 h; for plant injury at 15.625 g/ha: 15.625 g ai/ha, evaluated after 13 days (100=total damage to plant; 0=no damage to plant), read-out: Corn damage rating; for plant injury at 62.5 g/ha: 62.5 g ai/ha, read-out: Corn damage rating (100=total damage to plant; 0=no damage to plant); for plant injury at 62.5 g/ha / plant injury at 250 g/ha: evaluated after 13 days; for plant injury at 250 g/ha: 250 g ai/ha, read-out: damage to plant, Corn (100=total damage to plant; 0=no damage to plant)
Method in brief: as §1

[3] = system: giant foxtail (Setaria faberi); assay: Test G Post-Emergence Protocol; conditions: Setaria faberi, post-emergence, 312 h; for pest or weed control at 15.625 g/ha: 15.625 g ai/ha, evaluated after 13 days (100=total damage to plant; 0=no damage to plant), read-out: Foxtail, Giant damage rating; for pest or weed control at 62.5 g/ha: 62.5 g ai/ha, read-out: Foxtail, Giant damage rating (100=total damage to plant; 0=no damage to plant); for pest or weed control at 62.5 g/ha / pest or weed control at 250 g/ha: evaluated after 13 days; for pest or weed control at 250 g/ha: 250 g ai/ha, read-out: damage to plant, Foxtail, Giant (100=total damage to plant; 0=no damage to plant)
Method in brief: as §1

[4] = system: velvetleaf (Abutilon theophrasti); assay: Test G Post-Emergence Protocol; conditions: Abutilon theophrasti, post-emergence, 312 h; for pest or weed control at 15.625 g/ha: 15.625 g ai/ha, evaluated after 13 days (100=total damage to plant; 0=no damage to plant), read-out: Velvetleaf damage rating; for pest or weed control at 62.5 g/ha: 62.5 g ai/ha, read-out: Velvetleaf damage rating (100=total damage to plant; 0=no damage to plant); for pest or weed control at 62.5 g/ha / pest or weed control at 250 g/ha: evaluated after 13 days; for pest or weed control at 250 g/ha: 250 g ai/ha, read-out: damage to plant, Velvetleaf (100=total damage to plant; 0=no damage to plant)
Method in brief: as §1

[5] = system: ivy-leaved morning glory (Ipomoea hederacea); assay: Test G Post-Emergence Protocol; conditions: Ipomoea, post-emergence, 312 h; for pest or weed control at 15.625 g/ha: 15.625 g ai/ha, evaluated after 13 days (100=total damage to plant; 0=no damage to plant), read-out: Morningglory, Ivy-leaved damage rating; for pest or weed control at 62.5 g/ha: 62.5 g ai/ha, read-out: Morningglory, Ivy-leaved damage rating (100=total damage to plant; 0=no damage to plant); for pest or weed control at 62.5 g/ha / pest or weed control at 250 g/ha: evaluated after 13 days; for pest or weed control at 250 g/ha: 250 g ai/ha, read-out: damage to plant, Morningglory, Ivy-leaved (100=total damage to plant; 0=no damage to plant)
Method in brief: as §1

[6] = system: redroot pigweed (Amaranthus retroflexus); assay: Test G Post-Emergence Protocol; conditions: Amaranthus retroflexus, post-emergence, 312 h; for pest or weed control at 15.625 g/ha: 15.625 g ai/ha, evaluated after 13 days (100=total damage to plant; 0=no damage to plant), read-out: Pigweed, Redroot damage rating; for pest or weed control at 62.5 g/ha: 62.5 g ai/ha, read-out: Pigweed, Redroot damage rating (100=total damage to plant; 0=no damage to plant); for pest or weed control at 62.5 g/ha / pest or weed control at 250 g/ha: evaluated after 13 days; for pest or weed control at 250 g/ha: 250 g ai/ha, read-out: damage to plant, Pigweed, Redroot (100=total damage to plant; 0=no damage to plant)
Method in brief: as §1

[7] = system: barnyardgrass (Echinochloa crus-galli); assay: Test G Pre-Emergence Protocol; conditions: Echinochloa crus-galli, pre-emergence, 312 h, evaluated after 13 days; for pest or weed control at 15.625 g/ha: 15.625 g ai/ha, read-out: Barnyard grass damage rating (100=total damage to plant; 0=no damage to plant); for pest or weed control at 62.5 g/ha: 62.5 g ai/ha, 100=total damage to plant, 0=no damage to plant, read-out: plant damage rating, Barnyardgrass; for pest or weed control at 250 g/ha: 250 g ai/ha, read-out: Barnyardgrass damage rating (100=total damage to plant; 0=no damage to plant)
Method in brief: (§2)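 One day after sowing, pots are treated with a spray of test compound formulated in acetone/water 50:50 plus 0.5% Tween 20, giving 15.625, 62.5 or 250 g/ha. Evaluation on a 0–100 damage scale follows 13 days of glasshouse growth.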

[8] = system: corn (Zea mays); assay: Test G Pre-Emergence Protocol; conditions: Zea mays, pre-emergence, 312 h, evaluated after 13 days; for plant injury at 15.625 g/ha: 15.625 g ai/ha; for plant injury at 15.625 g/ha / plant injury at 250 g/ha: read-out: Corn damage rating (100=total damage to plant; 0=no damage to plant); for plant injury at 62.5 g/ha: 62.5 g ai/ha, 100=total damage to plant, 0=no damage to plant, read-out: plant damage rating, Corn; for plant injury at 250 g/ha: 250 g ai/ha
Method in brief: as §2

[9] = system: giant foxtail (Setaria faberi); assay: Test G Pre-Emergence Protocol; conditions: Setaria faberi, pre-emergence, 312 h, evaluated after 13 days; for pest or weed control at 15.625 g/ha: 15.625 g ai/ha; for pest or weed control at 15.625 g/ha / pest or weed control at 250 g/ha: read-out: Foxtail, Giant damage rating (100=total damage to plant; 0=no damage to plant); for pest or weed control at 62.5 g/ha: 62.5 g ai/ha, 100=total damage to plant, 0=no damage to plant, read-out: plant damage rating, Foxtail, Giant; for pest or weed control at 250 g/ha: 250 g ai/ha
Method in brief: as §2

[10] = system: velvetleaf (Abutilon theophrasti); assay: Test G Pre-Emergence Protocol; conditions: Abutilon theophrasti, pre-emergence, 312 h, evaluated after 13 days; for pest or weed control at 15.625 g/ha: 15.625 g ai/ha; for pest or weed control at 15.625 g/ha / pest or weed control at 250 g/ha: read-out: Velvetleaf damage rating (100=total damage to plant; 0=no damage to plant); for pest or weed control at 62.5 g/ha: 62.5 g ai/ha, 100=total damage to plant, 0=no damage to plant, read-out: plant damage rating, Velvetleaf; for pest or weed control at 250 g/ha: 250 g ai/ha
Method in brief: as §2

[11] = system: ivy-leaved morning glory (Ipomoea hederacea); assay: Test G Pre-Emergence Protocol; conditions: Ipomoea, pre-emergence, 312 h, evaluated after 13 days; for pest or weed control at 15.625 g/ha: 15.625 g ai/ha, read-out: Morning-glory, Ivy-leaved damage rating (100=total damage to plant; 0=no damage to plant); for pest or weed control at 62.5 g/ha: 62.5 g ai/ha, 100=total damage to plant, 0=no damage to plant, read-out: plant damage rating, Morningglory, Ivy-leaved; for pest or weed control at 250 g/ha: 250 g ai/ha, read-out: Morningglory, Ivy-leaved damage rating (100=total damage to plant; 0=no damage to plant)
Method in brief: as §2

[12] = system: redroot pigweed (Amaranthus retroflexus); assay: Test G Pre-Emergence Protocol; conditions: Amaranthus retroflexus, pre-emergence, 312 h, evaluated after 13 days; for pest or weed control at 15.625 g/ha: 15.625 g ai/ha; for pest or weed control at 15.625 g/ha / pest or weed control at 250 g/ha: read-out: Pigweed, Redroot damage rating (100=total damage to plant; 0=no damage to plant); for pest or weed control at 62.5 g/ha: 62.5 g ai/ha, 100=total damage to plant, 0=no damage to plant, read-out: plant damage rating, Pigweed, Redroot; for pest or weed control at 250 g/ha: 250 g ai/ha
Method in brief: as §2

Row | SMILES | pest or weed control at 15.625 g/ha [1] [%] | pest or weed control at 62.5 g/ha [1] [%] | pest or weed control at 250 g/ha [1] [%] | plant injury at 15.625 g/ha [2] [%] | plant injury at 62.5 g/ha [2] [%] | plant injury at 250 g/ha [2] [%] | pest or weed control at 15.625 g/ha [3] [%] | pest or weed control at 62.5 g/ha [3] [%] | pest or weed control at 250 g/ha [3] [%] | pest or weed control at 15.625 g/ha [4] [%] | pest or weed control at 62.5 g/ha [4] [%] | pest or weed control at 250 g/ha [4] [%] | pest or weed control at 15.625 g/ha [5] [%] | pest or weed control at 62.5 g/ha [5] [%] | pest or weed control at 250 g/ha [5] [%] | pest or weed control at 15.625 g/ha [6] [%] | pest or weed control at 62.5 g/ha [6] [%] | pest or weed control at 250 g/ha [6] [%] | pest or weed control at 15.625 g/ha [7] [%] | pest or weed control at 62.5 g/ha [7] [%] | also measured
1 | CN1C[C@@H](c2ccc(C(F)(F)F)cc2)[C@H](C(=O)Nc2nnnn2C)C1=O (racemic) [Compound 1618] | 0 | 0 | 0 | 0 | 0 | 0 | 0 | 0 | 0 | 0 | 0 | 0 | 0 | 0 | 0 | 0 | 0 | 0 | 0 | 0 | pest or weed control at 250 g/ha [7]: 10%; plant injury at 15.625 g/ha [8]: 0%; plant injury at 62.5 g/ha [8]: 0%; plant injury at 250 g/ha [8]: 20%; pest or weed control at 15.625 g/ha [9]: 0%; pest or weed control at 62.5 g/ha [9]: 0%; pest or weed control at 250 g/ha [9]: 20%; pest or weed control at 15.625 g/ha [10]: 0%; pest or weed control at 62.5 g/ha [10]: 0%; pest or weed control at 250 g/ha [10]: 10%; pest or weed control at 15.625 g/ha [11]: 0%; pest or weed control at 62.5 g/ha [11]: 0%; pest or weed control at 250 g/ha [11]: 20%; pest or weed control at 15.625 g/ha [12]: 0%; pest or weed control at 62.5 g/ha [12]: 0%; pest or weed control at 250 g/ha [12]: 20%
2 | CN1C[C@H](c2cccc(C(F)F)c2)[C@@H](C(=O)Nc2cccc(F)c2F)C1=O (racemic) [Compound 1588] | 80 | 80 | 80 | 60 | 80 | 80 | 60 | 70 | 70 | 0 | 0 | 40 | 70 | 20 | 50 | 0 | 0 | 20 | 80 | 90 | pest or weed control at 250 g/ha [7]: 90%; plant injury at 15.625 g/ha [8]: 40%; plant injury at 62.5 g/ha [8]: 60%; plant injury at 250 g/ha [8]: 80%; pest or weed control at 15.625 g/ha [9]: 70%; pest or weed control at 62.5 g/ha [9]: 80%; pest or weed control at 250 g/ha [9]: 90%; pest or weed control at 15.625 g/ha [10]: 0%; pest or weed control at 62.5 g/ha [10]: 10%; pest or weed control at 250 g/ha [10]: 20%; pest or weed control at 15.625 g/ha [11]: 20%; pest or weed control at 62.5 g/ha [11]: 0%; pest or weed control at 250 g/ha [11]: 80%; pest or weed control at 15.625 g/ha [12]: 0%; pest or weed control at 62.5 g/ha [12]: 40%; pest or weed control at 250 g/ha [12]: 70%
3 | CC(C)c1cc([C@H]2CN(C)C(=O)[C@@H]2C(=O)Nc2cccc(F)c2F)cnn1 (racemic) [Compound 1488] | 0 | 20 | 20 | 0 | 10 | 0 | 0 | 0 | 30 | 0 | 0 | 0 | 0 | 0 | 0 | 0 | 0 | 0 | 0 | 0 | pest or weed control at 250 g/ha [7]: 0%; plant injury at 15.625 g/ha [8]: 0%; plant injury at 62.5 g/ha [8]: 0%; plant injury at 250 g/ha [8]: 0%; pest or weed control at 15.625 g/ha [9]: 0%; pest or weed control at 62.5 g/ha [9]: 0%; pest or weed control at 250 g/ha [9]: 0%; pest or weed control at 15.625 g/ha [10]: 0%; pest or weed control at 62.5 g/ha [10]: 0%; pest or weed control at 250 g/ha [10]: 0%; pest or weed control at 15.625 g/ha [11]: 0%; pest or weed control at 62.5 g/ha [11]: 0%; pest or weed control at 250 g/ha [11]: 0%; pest or weed control at 15.625 g/ha [12]: 0%; pest or weed control at 62.5 g/ha [12]: 0%; pest or weed control at 250 g/ha [12]: 0%
